The values that follow come from article PMC7551886, “Antitumour Effects of Astaxanthin and Adonixanthin on Glioblastoma” (Marine Drugs, 2020).

Series [1] has as its system fibronectin. As to the kind of experiment: Immunoblotting, fibronectin expression in GL261. The class given is cell-based, mouse. Particulars: GL261, 10 µM, 48 h. On the procedure:
GL261 cell was seeded at 2.5 × 10^4 cells per well in 24-well plates with culture medium supplemented with 10% FBS. After 24 h of incubation, the medium was changed to DMEM containing 10% FBS and 0.1%DMSO PBS, 300 μM temozolomide, 10 μM astaxanthin, or 10 μM adonixanthin was added for 6 and 48 h. Cells were lysed in a special buffer (RIPA buffer R0278; Sigma-Aldrich, St. Louis, MO, USA) with a protease inhibitor cocktail (Sigma-Aldrich), phosphatase inhibitor cocktails 2 and 3 (Sigma-Aldrich), and sample buffer (Wako, Osaka, Japan). The protein concentration was determined by comparison with a known concentration of bovine serum albumin using the BCA Protein Assay Kit (Thermo Fisher Scientific). The amount of total protein was 2 μg. […] The band intensity was […] using an Immuno Star LD (Wako). Band intensity was measured using an LAS-4000 UV mini Luminescent Image Analyzer (Fujifilm, Tokyo Japan) and Multi Gauge Version 3.0 (Fujifilm). The phosphorylation of ERK1/2, Akt, and p38 MAPK was measured by normalizing against total ERK1/2, total Akt, and total p38 MAPK. […]
On the technique in general: Immunoblotting shows a protein as a band on a membrane.

The conditions of series [2]: known; no reference given; cited from earlier work.
For series [3], the system named is hippocampal inflammation. Also on record: method as in PMID 28017669. Particulars: diabetic mice, oral 25 mg/kg ref 45; cited from earlier work.
A short description of series [4]: Body weight of mice during administration. The class given is in vivo, mouse. As to the method: In the experiment of the murine orthotopic glioblastoma model, oral administration of each astaxanthin (10 and 30 mg/kg) and adonixanthin (10 and 30 mg/kg) was initiated 3 days after intracranial injection of GL261 cells and was continued for 10 days. In the experiment of the brain tissue absorption with oral astaxanthin or adonixanthin, after one week of adaptation, ICR mice were randomly divided into the following three groups: control group, astaxanthin group (50 mg/kg), and adonixanthin group (50 mg/kg). Mice were orally administered each reagent suspended in olive oil (5 mL/kg) by the daily single dose for 10 days. The control group was treated by olive oil alone (5 mL/kg).

In the case of `CC1=C(/C=C/C(C)=C/C=C/C(C)=C/C=C/C=C(C)/C=C/C=C(C)/C=C/C2=C(C)C(=O)[C@@H](O)CC2(C)C)C(C)(C)C[C@H](O)C1` [Adonixanthin, adonixanthin], the expression of fibronectin entry in series [1] is “decreased”.
On to `CC1=C(/C=C/C(C)=C/C=C/C(C)=C/C=C/C=C(C)/C=C/C=C(C)/C=C/C2=C(C)C(=O)[C@@H](O)CC2(C)C)C(C)(C)C[C@H](O)C1=O` [Astaxanthin, astaxanthin], for which the “dose that does not show adverse effects even with long-term administration” value in series [2] was 50 mg/kg. In addition, the hippocampal inflammation entry in series [3] is on record as “inhibited hippocampal inflammation”. Besides, the “changes in body weight” value in series [4] (10 days of administration) is recorded as “No significant changes”. Also, the “body weight of treated mice” value in series [4] (after 10 days of administration, vehicle 34.72 ± 2.05 g) is 35.50 ± 1.95 g.
